How the values were obtained:
[1] = Sub-therapeutic antibiotic treatment (STAT) in drinking water: growth and body composition by weighing, DEXA and MRI; type: in vivo, C57BL6/J mice; details: vs control
Method: Low dose penicillin (6.67 mg/L) was administered in the drinking water of C57BL6/J mice either at birth (day 0, antibiotics initially received through maternal milk) or at weaning (day 28); control mice received no antibiotics. All mice were given ad libitum access to food and water, and mice were fed either standard chow (13.5% kcal from fat) or high fat diet (45% kcal from fat). Mice were weighed daily and body composition was analyzed by dual energy x-ray absorptiometry (DEXA) and magnetic resonance imaging (MRI.)
C57B6 breeder mice (F0) were obtained at 6 weeks of age from Jackson Laboratory. One male was mated with 2 females to create the F1 generation. Males and females were separated after pregnancy was detected. On day 14 of pregnancy, STAT breeder females were exposed to penicillin so that their offspring would be exposed to antibiotics from birth; control breeders had no antibiotic exposure. From the F1 generation, penicillin-treated and control mice at or near the median weight of their group were selected at 12 weeks of age to become breeders, and to produce the F2 generation. Breeder mice and offspring were maintained on their current treatment (either control or penicillin). […]
The litters were monitored closely and the following information was collected: mating pairs, date of birth, litter number, number born, number weaned, animal number, gender, and generation number. […]
Mice were anesthetized using isofluorane. Total body mass, lean mass, fat mass, body fat percentage, and bone mineral density were measured using the Lunar PIXImus densitometer. […]
Mice were anaesthetized with isofluorane. Body temperature and breathing rate were continuously monitored throughout the scan, and body temperature was maintained by flowing warm air through the coil. […] Total body fat percentage was calculated by merging the two images to generate a fat fraction image. […] The fat volume was calculated by multiplying total volume of the VOI by the mean fat %. To determine liver adiposity, 5 consecutive slices of the liver were traced to generate a liver VOI, and the average percent fat was recorded. […]

[2] = tested on: butyryl coA transferase (BCoAT) gene; assay: Degenerate quantitative PCR for BCoAT on fecal specimens; type: in vivo, mice
Method: (§1) Quantitative PCR assays to assess for taxa of interest were performed on a Rotor Gene 3000 quantitative PCR cycler using the LightCycler FastStart DNA Master PLUS SYBR Green I kit (Roche, Indianapolis Ind.) according to the manufacturer's instructions. Quantitative assays to assess total microbial census were performed for Bacteria using 16S rRNA and Fungi using ITS sequences. Quantitative assays were also performed for butyryl CoA transferase (BCoAT) and formyltetrahydrofolate synthetase (FTHFS). Values were normalized using total Bacterial 16S copies prior to analyses.
(§2) Because of the central role of short-chain fatty acid synthesis in colonic metabolism (Wong et al., J Clin Gastroenterol 40, 235-243 (2006)), the effect of STAT exposure on the prokaryotic genes butyryl coA transferase (BCoAT) and formyltetrahydrofolate synthetase (FTHFS) that play roles in butyrate and acetate synthesis was examined Degenerate quantitative PCRs for BCoAT and FTHFS (primers listed in Table 1) were performed on fecal specimens in STAT (penicillin) and control mice. […] These findings provide evidence that STAT exposure perturbs not only GI microbiome, composition but also abundance of genes critical to host energy homeostasis.

[3] = tested on: formyltetrahydrofolate synthetase (FTHFS) gene; assay: Degenerate quantitative PCR for FTHFS on fecal specimens; type: in vivo, mice; details: vs control
Method: as §1, §2

liver gene expression = assay: Hepatic gene expression profiling by microarray; type: in vivo, mice
Excerpt: (§3) Total DNA and total RNA was extracted from the mouse liver by the Wizard® Genomic DNA purification Kit (Promega) and RNeasy Mini Kit (Qiagen), respectively, according to the manufacturers instructions. Total RNA was reverse transcribed to cDNA using the Verso™ cDNA Synthesis Kit (Thermo Scientific). To generate standards for each target gene expression analysis, the DNA or cDNA region of interest was PCR-amplified and the PCR product was cloned using the pGEM-Teasy vector system (Promega). qPCR was performed with a LightCycler 480 SYBR Green I Master (Roche) and run in a LightCycler 480 system (Roche). Target mRNA was normalized to GAPDH mRNA as an internal control in each sample.
Expression profiling of the STAT and control animal groups (n=6 each) was performed using the Affymetrix Genechip system (Affymetrix, Santa Clara, Calif.). Total RNA quality and quantity were determined using the Agilent 2100 Bioanalyzer and Nanodrop ND-1000. Total RNA (100 ng) was used to prepare cDNA following the Affymetrix 3′IVT Express Kit labeling protocol (Affymetrix). Standardized array processing procedures recommended by Affymetrix were performed, including hybridization, fluidics processing and scanning of the Affymetrix MG-430 2.0 arrays. GeneSpring GX11 software (Agilent Technologies, Santa Clara, Calif.) was used to normalize the raw data (Affymetrix CEL files) by Robust Multichip Average algorithm (RMA).

PPARγ = assay: Hepatic qPCR normalized to GAPDH; type: in vivo, mice; details: liver qPCR, vs control
Excerpt: as §3

SREBP1c = assay: Hepatic qPCR normalized to GAPDH; type: in vivo, mice; details: liver, vs control; same direction as microarrays
Excerpt: as §3

[4] = tested on: fatty acid translocase (FAT, CD36); assay: Hepatic qPCR normalized to GAPDH; type: in vivo, mice; details: liver qPCR, vs control
Excerpt: as §3

[5] = tested on: insulin receptor substrate 2 (IRS-2); assay: Hepatic qPCR normalized to GAPDH; type: in vivo, mice; details: liver, vs control; same direction as microarrays
Excerpt: as §3

Substance: penicillin
- Weight at 21 days ([1]; F1 generation, female mice): significantly decreased
- Weight at 21 days ([1]; F1 generation, sex not given): no difference
- Weight at 21 days ([1]; F2 generation, both females and males): significantly increased
- BCoAT gene copies ([2]; at 3 weeks): 193±22 normalized copies
- BCoAT gene copies ([2]; by 7 weeks, vs control): normalized
- FTHFS gene copies ([3]; at 3 weeks): no significant differences
- FTHFS gene copies ([3]; by 7 weeks): significantly higher
- Genes significantly up- or down-regulated by t-test or PTM (liver gene expression; >45,000 genes surveyed, vs control): 466 genes
- Genes significantly differed from controls by both tests (liver gene expression; t-test and PTM): 397 genes
- Genes differentially expressed, fatty acid metabolism pathways (liver gene expression; vs control): 22 genes
- Genes differentially expressed, lipid metabolic processes (liver gene expression; vs control): 47 genes
- PPARγ normalized gene counts (PPARγ): significantly higher
- SREBP1c qPCR result (SREBP1c): not statistically significant
- FAT normalized gene counts [4]: significantly higher
- IRS-2 qPCR result [5]: not statistically significant
